Laboratory results published in ChEMBL document CHEMBL3046218, “Characterization of sensitivity of Rhizoctonia solani, causing rice sheath blight, to mepronil and boscalid” (Crop Prot, 2009).
Values after ≈ are worked out from the molar mass of the structure shown.

Key:
Rhizoctonia solani [1] = experiment: Antifungal activity against mepronil-resistant Rhizoctonia solani JSR3 after 2 days; format: functional, organism-based; conditions: JSR3, 48 h
Rhizoctonia solani [2] = experiment: Antifungal activity against mepronil-resistant Rhizoctonia solani JSR2 after 2 days; format: functional, organism-based; conditions: JSR2, 48 h
Rhizoctonia solani [3] = experiment: Antifungal activity against mepronil-resistant Rhizoctonia solani JSR1 after 2 days; format: functional, organism-based; conditions: JSR1, 48 h
Rhizoctonia solani [4] = experiment: Antifungal activity against mepronil-sensitive wild type Rhizoctonia solani JS7 after 2 days; format: functional, organism-based; conditions: JS7, 48 h
Rhizoctonia solani [5] = experiment: Antifungal activity against mepronil-resistant Rhizoctonia solani ZJR2 after 2 days; format: functional, organism-based; conditions: ZJR2, 48 h
Rhizoctonia solani [6] = experiment: Antifungal activity against mepronil-resistant Rhizoctonia solani ZJR3 after 2 days; format: functional, organism-based; conditions: ZJR3, 48 h
Rhizoctonia solani [7] = experiment: Antifungal activity against mepronil-resistant Rhizoctonia solani ZJR1 after 2 days; format: functional, organism-based; conditions: ZJR1, 48 h
Rhizoctonia solani [8] = experiment: Antifungal activity against mepronil-sensitive wild type Rhizoctonia solani ZJ-1 after 2 days; format: functional, organism-based; conditions: ZJ-1, 48 h
Rhizoctonia solani [9] = experiment: Resistant factor, ratio of EC50 for mepronil-resistant Rhizoctonia solani ZJR1 to EC50 for mepronil-sensitive wild type Rhizoctonia solani ZJ-1; format: functional
Rhizoctonia solani [10] = experiment: Resistant factor, ratio of EC50 for mepronil-resistant Rhizoctonia solani JSR3 to EC50 for mepronil-sensitive wild type Rhizoctonia solani JS7; format: functional
Rhizoctonia solani [11] = experiment: Resistant factor, ratio of EC50 for mepronil-resistant Rhizoctonia solani JSR2 to EC50 for mepronil-sensitive wild type Rhizoctonia solani JS7; format: functional
Rhizoctonia solani [12] = experiment: Resistant factor, ratio of EC50 for mepronil-resistant Rhizoctonia solani JSR1 to EC50 for mepronil-sensitive wild type Rhizoctonia solani JS7; format: functional
Rhizoctonia solani [13] = experiment: Resistant factor, ratio of EC50 for mepronil-resistant Rhizoctonia solani ZJR3 to EC50 for mepronil-sensitive wild type Rhizoctonia solani ZJ-1; format: functional
Rhizoctonia solani [14] = experiment: Resistant factor, ratio of EC50 for mepronil-resistant Rhizoctonia solani ZJR2 to EC50 for mepronil-sensitive wild type Rhizoctonia solani ZJ-1; format: functional

SMILES | EC50 (Rhizoctonia solani [1]) [µg/mL] | EC50 (Rhizoctonia solani [2]) [µg/mL] | EC50 (Rhizoctonia solani [3]) [µg/mL] | EC50 (Rhizoctonia solani [4]) [µg/mL] | EC50 (Rhizoctonia solani [5]) [µg/mL] | EC50 (Rhizoctonia solani [6]) [µg/mL] | EC50 (Rhizoctonia solani [7]) [µg/mL] | EC50 (Rhizoctonia solani [8]) [µg/mL] | Ratio EC50 (Rhizoctonia solani [9]) | Ratio EC50 (Rhizoctonia solani [10]) | Ratio EC50 (Rhizoctonia solani [11]) | Ratio EC50 (Rhizoctonia solani [12]) | Ratio EC50 (Rhizoctonia solani [13]) | Ratio EC50 (Rhizoctonia solani [14])
O=C(Nc1ccccc1-c1ccc(Cl)cc1)c1cccnc1Cl [BOSCALID] | 2.08 (≈ 6.06 µM) | 2.13 (≈ 6.21 µM) | 2.26 (≈ 6.58 µM) | 2.15 (≈ 6.26 µM) | 2.15 (≈ 6.26 µM) | 1.93 (≈ 5.62 µM) | 1.87 (≈ 5.45 µM) | 1.98 (≈ 5.77 µM) | – | – | – | – | – | –
Cc1ccccc1C(=O)Nc1cccc(OC(C)C)c1 [MEPRONIL] | 20.6 (≈ 76.3 µM) | 14.2 (≈ 52.6 µM) | 8.56 (≈ 31.8 µM) | 0.098 (≈ 0.364 µM) | 12.7 (≈ 47 µM) | 20.8 (≈ 77.3 µM) | 13.5 (≈ 50.3 µM) | – | 116.7 | 209.8 | 144.5 | 87.3 | 179.5 | 109.2
CO/C=C(/C(=O)OC)c1ccccc1Oc1cc(Oc2ccccc2C#N)ncn1 [AZOXYSTROBIN] | 0.19 (≈ 0.471 µM) | 0.18 (≈ 0.446 µM) | 0.17 (≈ 0.421 µM) | 0.19 (≈ 0.471 µM) | 0.34 (≈ 0.843 µM) | 0.32 (≈ 0.793 µM) | 0.32 (≈ 0.793 µM) | 0.32 (≈ 0.793 µM) | – | – | – | – | – | –
OCC1=C[C@H](N[C@H]2C[C@H](CO)[C@@H](O[C@@H]3O[C@H](CO)[C@@H](O)[C@H](O)[C@H]3O)[C@H](O)[C@H]2O)[C@H](O)[C@@H](O)[C@@H]1O [VALIDAMYCIN] | 0.14 (≈ 0.281 µM) | 0.18 (≈ 0.362 µM) | 0.16 (≈ 0.322 µM) | 0.18 (≈ 0.362 µM) | 0.09 (≈ 0.181 µM) | 0.1 (≈ 0.201 µM) | 0.08 (≈ 0.161 µM) | 0.09 (≈ 0.181 µM) | – | – | – | – | – | –
CO/N=C(/C(=O)OC)c1ccccc1COc1ccccc1C [KRESOXIM-METHYL] | 0.16 (≈ 0.511 µM) | 0.14 (≈ 0.447 µM) | 0.2 (≈ 0.638 µM) | 0.16 (≈ 0.511 µM) | 0.29 (≈ 0.925 µM) | 0.37 (≈ 1.18 µM) | 0.33 (≈ 1.05 µM) | 0.34 (≈ 1.09 µM) | – | – | – | – | – | –
